In patent US20180192601A1, “Composition and Process for Producing Plants Using Anthers of Jatropha Species” (Reliance Industries Limited, priority 2017, published 2018):

Key:
Type in all cases: cell-based, Jatropha Curcas
[1] = tested on: anthers of Jatropha; test: Callus induction (callus formation) from anthers on callus induction composition
Method: The flower bud of about 2.5 mm were selected for excision of anthers. The flower buds were blot dried with several layers of sterile filter papers to remove excess moisture.
The anthers were excised from unopened flower buds in the laminar air flow (sterile hood) under aseptic conditions.
About 10 to 12 anthers were inoculated into culture tubes comprising the composition of the present disclosure for callus induction. The inoculated culture tubes were incubated in dark at a temperature of about 25±1° C. for a period ranging from about 25 days to 30 days. The culture tubes were replenished with the composition every three weeks for high frequency induction of callus. […]

[2] = tested on: embryogenic calli of Jatropha anthers; test: Plant regeneration from embryogenic calli of Jatropha anthers
Method: The calli of size ranging from about 0.5 cm to 1.0 cm (breadth) were divided into small pieces and inoculated in the culture tubes comprising the composition of the present disclosure for induction of somatic embryogenesis.
The culture tubes showing the developed somatic embryoids were transferred to composition of the present disclosure for somatic embryo maturation and incubated in light culture room for about 16 hours under photoperiod (provided by cool while fluorescent lamp) and under dark for about 8 hours at a temperature of about 25±1° C. This process is continued until somatic embryos get matured and small shoots are visible.
Regeneration of embryogenic calli or embryoids was stimulated and maintained on various combinations of MSB media. Regenerated shoots were transferred to rooting medium for root development.
Table 3 illustrates the effect of different concentration of IBA individually and in combination with BAP and Kinetin of different concentrations on plant regeneration from embryogenic calli of Jatropha anthers.

[3] = tested on: matured embryoids or small plantlets of Jatropha; test: Embryo germination and rooting of seedling
Method: The matured embryoids with the photoperiod of 16 hrs light and 8 hrs dark or small plantlets were transferred to the composition of the present disclosure and incubated at temperature ranging from about 25° C. to 28° C. for period of about 25 days to 30 days, for germination, for proliferation of roots and further elongation of shoots.
Table 4 illustrates the effect of different concentrations of IBA individually and in combination of with various concentrations of phloroglucinol and GA3 on embryo germination and rooting of seedling. Among the tested concentrations, IBA-0.1 mg/l, phloroglucinol—0.5 mg/l; Gibberellic acid-0.5 mg/l observed to be effective in producing more number of roots (6 roots/shoot) in 80% of the cultures; employing the composition comprising 100 ml of MS macro elements (10× concentration), about 25 ml of MS micro elements (100× concentration) about 10 ml of MS vitamins (200× concentration); citric aicd—40 mg/l; PVP—250 mg/l; Ascorbic acid—55 mg/l; myo inositol—100 mg/L; sucrose 20 g/L. Phytagel 1.5 g/l.

O=C(O)COc1ccc(Cl)cc1Cl [2,4-D, 2,4-dichloro phenoxy acetic acid]
Callus formation (%) ([1]; 2,4-D 0.5 mg/L): 2% | Callus formation (%) ([1]; 2,4-D 1 mg/L): 2% | Callus formation (%) ([1]; 2,4-D 2 mg/L): 10% | Callus formation (%) ([1]; 2,4-D 3 mg/L): 20% | Callus formation (%) ([1]; 2,4-D 4 mg/L): 35% | Callus formation (%) ([1]; 2,4-D 5 mg/L): 45%

indole butyric acid [IBA]
% of cultures showed regeneration ([2]; IBA 0.1 mg/L): 0.0% | No of Plants/explant ([2]; IBA 0.1 mg/L): 0 Plants/explant | % of cultures showed regeneration ([2]; IBA 0.2 mg/L): 0.0% | No of Plants/explant ([2]; IBA 0.2 mg/L): 0 Plants/explant | % of cultures showed regeneration ([2]; IBA 1.0 mg/L): 0.0% | No of Plants/explant ([2]; IBA 1.0 mg/L): 0 Plants/explant | % of cultures showed regeneration ([2]; IBA 2.0 mg/L): 0.0% | No of Plants/explant ([2]; IBA 2.0 mg/L): 0 Plants/explant | % of cultures showed regeneration ([2]; IBA 5.0 mg/L): 0.0% | No of Plants/explant ([2]; IBA 5.0 mg/L): 0 Plants/explant | % of Embryos Germinated ([3]; IBA 0.1 mg/L): 0.0% | No. of roots/shoot ([3]; IBA 0.1 mg/L): 0 roots/shoot | % of Embryos Germinated ([3]; IBA 0.2 mg/L): 0.0% | No. of roots/shoot ([3]; IBA 0.2 mg/L): 0 roots/shoot | % of Embryos Germinated ([3]; IBA 1.0 mg/L): 0.0% | No. of roots/shoot ([3]; IBA 1.0 mg/L): 0 roots/shoot | % of Embryos Germinated ([3]; IBA 2.0 mg/L): 0.0% | No. of roots/shoot ([3]; IBA 2.0 mg/L): 0 roots/shoot | % of Embryos Germinated ([3]; IBA 5.0 mg/L): 0.0% | No. of roots/shoot ([3]; IBA 5.0 mg/L): 0 roots/shoot
